ChEMBL document CHEMBL5247640 (J Med Chem, 2023)

What was measured:
[1] = AUClast in ICR mouse serum at 10 mg/kg, po measured after 24 hrs by LC-MS/MS analysis; type: ADME, organism-based; design: time 24 hrs, dose 10 mg/kg, route po
[2] = Toxicity in ICR mouse assessed as decrease in serum total LDL-cholesterol level at 10 mg/kg, po administered as single dose measured after 24 hrs by automated biochemical analyzer; type: organism-based; design: scale not given: the % may be the effect or the level left; settings: in vivo
[3] = Metabolic stability in mouse liver microsomes assessed as half life; type: ADME, Microsome
[4] = AUClast in ICR mouse liver at 10 mg/kg, po measured after 24 hrs by LC-MS/MS analysis; type: ADME, organism-based; settings: in vivo
[5] = Toxicity in ICR mouse assessed as decrease in serum total cholesterol level at 30 mg/kg, po administered as single dose measured after 24 hrs by automated biochemical analyzer; type: organism-based; design: scale not given: the % may be the effect or the level left; settings: in vivo
[6] = Cardiotoxicity in ICR mouse assessed as changes in Myh6 mRNA expression in heart at 3 to 10 mg/kg, po administered as single dose by qRT-PCR analysis; type: toxicity, organism-based; settings: in vivo, dose 3-10 mg/kg
[7] = AUClast in ICR mouse at 30 mg/kg, po measured after 24 hrs by LC-MS/MS analysis; type: ADME, organism-based; design: dose 30 mg/kg, time 24 hrs, route po; settings: in vivo
[8] = Cmax in ICR mouse serum at 10 mg/kg, po measured after 24 hrs by LC-MS/MS analysis; type: ADME, organism-based; design: dose 10 mg/kg, time 24 hrs, route po
[9] = Metabolic stability in rat liver microsomes assessed as intrinsic clearance; type: ADME, Microsome
[10] = Cmax in ICR mouse liver at 10 mg/kg, po measured after 24 hrs by LC-MS/MS analysis; type: ADME, organism-based; design: dose 10 mg/kg, time 24 hrs, route po
[11] = Half life in ICR mouse serum at 10 mg/kg, po measured after 24 hrs by LC-MS/MS analysis; type: ADME, organism-based
[12] = Cardiotoxicity in ICR mouse assessed as changes in Myh6/Myh7 ratio in heart at 3 to 10 mg/kg, po administered as single dose by qRT-PCR analysis; type: toxicity, organism-based; settings: in vivo, dose 3-10 mg/kg
[13] = Hepatotoxicity in ICR mouse assessed as upregulation of THRSP mRNA expression in liver by measuring fold change at 3 to 10 mg/kg, po administered as single dose by qRT-PCR analysis; type: toxicity, organism-based; settings: in vivo, dose 3-10 mg/kg
[14] = Metabolic stability in human liver microsomes assessed as half life; type: ADME, Microsome
[15] = Cmax in ICR mouse at 30 mg/kg, po measured after 24 hrs by LC-MS/MS analysis; type: ADME, organism-based; design: time 24 hrs, dose 30 mg/kg, route po; settings: in vivo
[16] = Tmax in ICR mouse liver at 10 mg/kg, po measured after 24 hrs by LC-MS/MS analysis; type: ADME, organism-based
[17] = Toxicity in ICR mouse assessed as decrease in serum total cholesterol level at 10 mg/kg, po administered as single dose measured after 24 hrs by automated biochemical analyzer; type: organism-based; design: scale not given: the % may be the effect or the level left; settings: in vivo
[18] = Hepatotoxicity in ICR mouse assessed as upregulation of Me1 mRNA expression in liver by measuring fold change at 3 to 10 mg/kg, po administered as single dose by qRT-PCR analysis; type: toxicity, organism-based; settings: in vivo, dose 3-10 mg/kg
[19] = Toxicity in ICR mouse assessed as decrease in serum total LDL-cholesterol level at 3 mg/kg, po administered as single dose measured after 24 hrs by automated biochemical analyzer; type: organism-based; design: scale not given: the % may be the effect or the level left; settings: in vivo
[20] = Cardiotoxicity in ICR mouse assessed as changes in Myh7 mRNA expression in heart at 3 to 10 mg/kg, po administered as single dose by qRT-PCR analysis; type: toxicity, organism-based; settings: in vivo, dose 3-10 mg/kg
[21] = Tmax in ICR mouse serum at 10 mg/kg, po measured after 24 hrs by LC-MS/MS analysis; type: ADME, organism-based
[22] = Half life in ICR mouse at 30 mg/kg, po measured after 24 hrs by LC-MS/MS analysis; type: ADME, organism-based; settings: in vivo
[23] = Hepatotoxicity in ICR mouse assessed as upregulation of Dio1 mRNA expression in liver by measuring fold change at 3 to 10 mg/kg, po administered as single dose by qRT-PCR analysis; type: toxicity, organism-based; settings: in vivo, dose 3-10 mg/kg
[24] = Metabolic stability in rat liver microsomes assessed as half life; type: ADME, Microsome
[25] = Metabolic stability in mouse liver microsomes assessed as intrinsic clearance; type: ADME, Microsome
[26] = Toxicity in ICR mouse assessed as decrease in serum total cholesterol level at 3 mg/kg, po administered as single dose measured after 24 hrs by automated biochemical analyzer; type: organism-based; design: scale not given: the % may be the effect or the level left; settings: in vivo
[27] = Metabolic stability in human liver microsomes assessed as intrinsic clearance; type: ADME, Microsome
[28] = Tmax in ICR mouse at 30 mg/kg, po measured after 24 hrs by LC-MS/MS analysis; type: ADME, organism-based; settings: in vivo
[29] = Toxicity in ICR mouse assessed as decrease in serum total cholesterol level at 1 mg/kg, po administered as single dose measured after 24 hrs by automated biochemical analyzer; type: organism-based; design: scale not given: the % may be the effect or the level left; settings: in vivo
[30] = Toxicity in ICR mouse assessed as decrease in serum total LDL-cholesterol level at 1 mg/kg, po administered as single dose measured after 24 hrs by automated biochemical analyzer; type: organism-based; design: scale not given: the % may be the effect or the level left; settings: in vivo
[31] = Cardiotoxicity in ICR mouse assessed as upregulation of Myh6 mRNA expression in heart at 1 mg/kg, po administered as single dose by qRT-PCR analysis; type: toxicity, organism-based; settings: in vivo

CC(C)c1cc(Oc2c(Cl)cc(-n3nc(C#N)c(=O)[nH]c3=O)cc2Cl)n[nH]c1=O [RESMETIROM]
AUC(0-t) at 24 h [1]: 57.1 µg·h/mL
Activity [2]: 39.8%
half-life [3]: 3.88 h
AUClast [4]: 349501 ng·h/g
Activity [5]: 20.4%
Activity [6]: Non-Toxic
AUC(0-t) at 24 h [7]: 168 µg·h/mL
Cmax [8]: 5710 ng/mL
CLH [9]: 8.6 mL/min/g
Cmax [10]: 24300 ng/g
half-life [11]: 9.1 h
Activity [12]: Non-Toxic
fold change (FC) [13]: 10
half-life [14]: 1.32 h
Cmax [15]: 12100 ng/mL
Tmax [16]: 4 h
Activity [17]: 36.9%
fold change (FC) [18]: 1.8
Activity [19]: 39.3%
Activity [20]: Non-Toxic
Tmax [21]: 2.7 h
half-life [22]: 16.7 h
fold change (FC) [23]: 12
half-life [24]: 4.08 h
CLH [25]: 9 mL/min/g
Activity [26]: 27.2%
CLH [27]: 26.5 mL/min/g
Tmax [28]: 6 h

N[C@@H](Cc1cc(I)c(Oc2ccc(O)c(I)c2)c(I)c1)C(=O)O [LIOTHYRONINE]
Activity [29]: 44%
Activity [30]: 61.9%
Activity [31]: Toxic
